These results are taken from patent US11339171B2, “MDM2 inhibitors” (Gan & Lee Pharmaceuticals, priority 2017, dated 2022).

The test system of one test is human osteosarcoma cell line SJSA-1. Description: Inhibition of proliferation of human osteosarcoma cell line SJSA-1 (DAPI staining, In Cell Analyzer). As to conditions: Homo sapiens, SJSA-1, 72 h, read-out: IC50 (nM), inhibitory activity on proliferation of human osteosarcoma cell line SJSA-1, SJSA-1, incubated 72 h.
Regarding `COc1ccc(-c2nc3c(n2C(C)C)[C@]2(C(=O)Nc4cc(Cl)ccc42)N(c2cccc(Cl)c2)C3=O)c(OC)c1` [Example R-36, (R)-6-chloro-5′-(3-chlorophenyl)-2′-(2,4-dimethoxyphenyl)-3′-isopropyl-3′H-spiro[dihydroindole-3,4′-pyrrolo[3,4-d]imidazole]-2,6′(5′H)-dione], the IC50 was 3180 nM. Still for that read-out and setting: for `COc1ccc(-c2nc3c(n2C(C)C)[C@@]2(C(=O)Nc4cc(Cl)ccc42)N(c2cccc(Cl)c2)C3=O)c(OC)c1` [Example S-36, (S)-6-chloro-5′-(3-chlorophenyl)-2′-(2,4-dimethoxyphenyl)-3′-isopropyl-3′H-spiro[dihydroindole-3,4′-pyrrolo[3,4-d]imidazole]-2,6′(5′H)-dione] the value was 83.8 nM.

The same test, now with this note: labels are Example numbers; the compounds with S-configuration are meant.
For `CCc1ccc(-c2nc3c(n2C(C)C)C2(C(=O)Nc4cc(Cl)ccc42)N(c2cc(Cl)ccc2C)C3=O)c(OC)c1` (centres unmarked) [Example 33, 6-chloro-5′-(5-chloro-2-methylphenyl)-2′-(4-ethyl-2-methoxyphenyl)-3′-isopropyl-3′H-spiro[dihydroindole-3,4′-pyrrolo[3,4-d]imidazole]-2,6′(5′H)-dione], the “inhibitory effect on human osteosarcoma cell line SJSA-1 compared with positive control compound HDM201” value is recorded as “better”. On the same count and under the same terms, for `COc1cc(OC)c(-c2nc3c(n2C(C)C)C2(C(=O)Nc4cc(Cl)ccc42)N(c2cc(Cl)ccc2C)C3=O)cc1C` (centres unmarked) [Example 83, 6-chloro-5′-(5-chloro-2-methylphenyl)-2′-(2,4-dimethoxy-5-methylphenyl)-3′-isopropyl-3′H-spiro[dihydroindole-3,4′-pyrrolo[3,4-d]imidazole]-2,6′(5′H)-dione] the value was “better”; for `COc1cc(C2CC2)ccc1-c1nc2c(n1C(C)C)C1(C(=O)Nc3cc(Cl)ccc31)N(c1cc(Cl)ccc1C)C2=O` (centres unmarked) [Example 86, 6-chloro-5′-(5-chloro-2-methylphenyl)-2′-(4-cyclopropyl-2-methoxyphenyl)-3′-isopropyl-3′H-spiro[dihydroindole-3,4′-pyrrolo[3,4-d]imidazole]-2,6′(5′H)-dione], “better”; for `COc1cc(C(C)C)ccc1-c1nc2c(n1C(C)C)C1(C(=O)Nc3cc(Cl)ccc31)N(c1cc(Cl)cnc1C)C2=O` (centres unmarked) [Example 89, 6-chloro-5′-(5-chloro-2-methylpyridin-3-yl)-3′-isopropyl-2′-(4-isopropyl-2-methoxyphenyl)-3′H-spiro[dihydroindole-3,4′-pyrrolo[3,4-d]imidazole]-2,6′(5′H)-dione], “better”. Still for that read-out and setting: the entry for `COc1cc(N(C)C)c(C)cc1-c1nc2c(n1C(C)C)C1(C(=O)Nc3cc(Cl)ccc31)N(c1cc(Cl)ccc1C)C2=O` (centres unmarked) [Example 91, 6-chloro-5′-(5-chloro-2-methylphenyl)-2′-(4-(dimethylamino)-2-methoxy-5-methylphenyl)-3′-isopropyl-3′H-spiro[dihydroindole-3,4′-pyrrolo[3,4-d]imidazole]-2,6′(5′H)-dione] is “better”; for `CCN(C)c1ccc(-c2nc3c(n2C(C)C)C2(C(=O)Nc4cc(Cl)ccc42)N(c2cc(Cl)ccc2C)C3=O)c(OC)c1` (centres unmarked) [Example 99, 6-chloro-5′-(5-chloro-2-methylphenyl)-2′-(4-(ethyl(methyl)amino)-2-methoxyphenyl)-3′-isopropyl-3′H-spiro[dihydroindole-3,4′-pyrrolo[3,4-d]imidazole]-2,6′(5′H)-dione] it is “better”. The same measure, in the same setting: the entry for `COc1cc(C(C)(C)C)ccc1-c1nc2c(n1C(C)C)C1(C(=O)Nc3cc(Cl)ccc31)N(c1cc(Cl)ccc1C)C2=O` (centres unmarked) [Example 101, 2′-(4-(tert-butyl)-2-methoxyphenyl)-6-chloro-5′-(5-chloro-2-methylphenyl)-3′-isopropyl-3′H-spiro[dihydroindole-3,4′-pyrrolo[3,4-d]imidazole]-2,6′(5′H)-dione] is “better”; for `COc1cc(C2CC2)ncc1-c1nc2c(n1C(C)C)C1(C(=O)Nc3cc(Cl)ccc31)N(c1cccc(Cl)c1)C2=O` (centres unmarked) [Example 106, 6-chloro-5′-(3-chlorophenyl)-2′-(6-cyclopropyl-4-methoxypyridin-3-yl)-3′-isopropyl-3′H-spiro[dihydroindole-3,4′-pyrrolo[3,4-d]imidazole]-2,6′(5′H)-dione] it is “better”.

As to `COc1cc(C2CC2)cc(OC)c1-c1nc2c(n1C(C)C)C1(C(=O)Nc3cc(Cl)ccc31)N(c1cc(Cl)ccc1C)C2=O` (centres unmarked) [Example 108, 6-chloro-5′-(5-chloro-2-methylphenyl)-2′-(4-cyclopropyl-2,6-dimethoxyphenyl)-3′-isopropyl-3′H-spiro[dihydroindole-3,4′-pyrrolo[3,4-d]imidazole]-2,6′(5′H)-dione], the “inhibitory effect on human osteosarcoma cell line SJSA-1 compared with positive control compound HDM201” value was “better”. Same read-out and setting: for `COc1nc(N2CCCC2)ncc1-c1nc2c(n1C(C)C)C1(C(=O)Nc3cc(Cl)ccc31)N(c1cc(Cl)ccc1C)C2=O` (centres unmarked) [Example 114] the value was “better”. Still for that read-out and setting: for `CCN(C)c1ncc(-c2nc3c(n2C(C)C)C2(C(=O)Nc4cc(Cl)ccc42)N(c2cc(Cl)ccc2C)C3=O)c(OC)n1` (centres unmarked) [Example 119, 6-chloro-5′-(5-chloro-2-methylphenyl)-2′-(2-(ethyl(methyl)amino)-4-methoxypyrimidin-5-yl)-3′-isopropyl-3′H-spiro[dihydroindole-3,4′-pyrrolo[3,4-d]imidazole]-2,6′(5′H)-dione] the value was “better”; for `COc1nc(C2CC2)ncc1-c1nc2c(n1C(C)C)C1(C(=O)Nc3cc(Cl)ccc31)N(c1cc(Cl)ccc1C)C2=O` (centres unmarked) [Example 121, 6-chloro-5′-(5-chloro-2-methylphenyl)-2′-(2-cyclopropyl-4-methoxypyrimidin-5-yl)-3′-isopropyl-3′H-spiro[dihydroindole-3,4′-pyrrolo[3,4-d]imidazole]-2,6′(5′H)-dione], “better”; for `CCOc1ncc(-c2nc3c(n2C(C)C)C2(C(=O)Nc4cc(Cl)ccc42)N(c2cc(Cl)ccc2C)C3=O)c(OC)n1` (centres unmarked) [Example 127], “better”.

Regarding `COc1nc(OCC(F)(F)F)ncc1-c1nc2c(n1C(C)C)C1(C(=O)Nc3cc(Cl)ccc31)N(c1cc(Cl)ccc1C)C2=O` (centres unmarked) [Example 141, 6-chloro-5′-(5-chloro-2-methylphenyl)-3′-isopropyl-2′-(4-methoxy-2-(2,2,2-trifluoroethoxy)pyrimidin-5-yl)-3′H-spiro[dihydroindole-3,4′-pyrrolo[3,4-d]imidazole]-2,6′(5′H)-dione], the “inhibitory effect on human osteosarcoma cell line SJSA-1 compared with positive control compound HDM201” value is given as “better”. On the same count and under the same terms, for `COc1cc(C2CC2)ccc1-c1nc2c(n1C(C)C)C1(C(=O)Nc3cc(Cl)ccc31)N(c1cc(Cl)cnc1C)C2=O` (centres unmarked) [Example 145, 6-chloro-5′-(5-chloro-2-methylpyridin-3-yl)-2′-(4-cyclopropyl-2-methoxyphenyl)-3′-isopropyl-3′H-spiro[dihydroindole-3,4′-pyrrolo[3,4-d]imidazole]-2,6′(5′H)-dione] the value was “better”. Consider `CCOc1ccc(-c2nc3c(n2C(C)C)C2(C(=O)Nc4cc(Cl)ccc42)N(c2cc(Cl)ccc2C)C3=O)c(OC)n1` (centres unmarked) [Example 146, 6-chloro-5′-(5-chloro-2-methylphenyl)-2′-(6-ethoxy-2-methoxypyridin-3-yl)-3′-isopropyl-3′H-spiro[dihydroindole-3,4′-pyrrolo[3,4-d]imidazole]-2,6′(5′H)-dione], for which the “inhibitory effect on human osteosarcoma cell line SJSA-1 compared with positive control compound HDM201” value is “better”.

Take `COc1nc(N(C)C)ccc1-c1nc2c(n1C(C)C)C1(C(=O)Nc3cc(Cl)ccc31)N(c1cc(Cl)ccc1C)C2=O` (centres unmarked) [Example 157, 6-chloro-5′-(5-chloro-2-methylphenyl)-2′-(6-(dimethylamino)-2-methoxypyridin-3-yl)-3′-isopropyl-3′H-spiro[dihydroindole-3,4′-pyrrolo[3,4-d]imidazole]-2,6′(5′H)-dione]: the “inhibitory effect on human osteosarcoma cell line SJSA-1 compared with positive control compound HDM201” value is reported as “better”. Same read-out and setting: for `COc1nc(C2CC2)ncc1-c1nc2c(n1C(C)C)C1(C(=O)Nc3cc(Cl)ccc31)N(c1cc(Cl)cnc1C)C2=O` (centres unmarked) [Example 159, 6-chloro-5′-(5-chloro-2-methylpyridin-3-yl)-2′-(2-cyclopropyl-4-methoxypyrimidin-5-yl)-3′-isopropyl-3′H-spiro[dihydroindole-3,4′-pyrrolo[3,4-d]imidazole]-2,6′(5′H)-dione] the value was “better”; for `COc1cc(N(C)CCO)ccc1-c1nc2c(n1C(C)C)C1(C(=O)Nc3cc(Cl)ccc31)N(c1cc(Cl)ccc1C)C2=O` (centres unmarked) [Example 162, 6-chloro-5′-(5-chloro-2-methylphenyl)-2′-(4-((2-hydroxyethyl)(methyl)amino)-2-methoxyphenyl)-3′-isopropyl-3′H-spiro[dihydroindole-3,4′-pyrrolo[3,4-d]imidazole]-2,6′(5′H)-dione], “better”. Same read-out and setting: for `COc1nc(C(C)C)ncc1-c1nc2c(n1C(C)C)C1(C(=O)Nc3cc(Cl)ccc31)N(c1cc(Cl)ccc1C)C2=O` (centres unmarked) [Example 172, 6-chloro-5′-(5-chloro-2-methylphenyl)-3′-isopropyl-2′-(2-isopropyl-4-methoxypyrimidin-5-yl)-3′H-spiro[dihydroindole-3,4′-pyrrolo[3,4-d]imidazole]-2,6′(5′H)-dione] the value was “better”.

The same test, now with this note: read-out: IC50 (nM), inhibitory activity on proliferation of human osteosarcoma cell line SJSA-1; SJSA-1, incubated 72 h.
In the case of `COc1ccc(-c2nc3c(n2C(C)C)[C@@]2(C(=O)Nc4cc(Cl)ccc42)N(c2cccc(Cl)c2)C3=O)c(OC)c1` [Example S-36, (S)-6-chloro-5′-(3-chlorophenyl)-2′-(2,4-dimethoxyphenyl)-3′-isopropyl-3′H-spiro[dihydroindole-3,4′-pyrrolo[3,4-d]imidazole]-2,6′(5′H)-dione], the IC50 was found to be 72.3 nM.
